What all share (type): functional, tissue-based
Assay [1] deals with Myometrium. Description: Induction of contraction in beta-estradiol stimulated rat myometrium.
Assay [2] has as its system Myometrium. Description: Induction of contraction per minute in beta-estradiol stimulated rat myometrium at 1 nM.
For assay [3], the system named is Myometrium. In words: Induction of contraction per minute in beta-estradiol stimulated rat myometrium at 0.6 uM.

Structures are written as SMILES. Calls of active or inactive are those of the source. No cut-off for these calls is given here.

Consider `CC[C@H](C)[C@@H]1NC(=O)[C@H](Cc2ccc(O)cc2)NC(=O)[C@@H](N)CSSC[C@@H](C(=O)N2CCC[C@H]2C(=O)N[C@@H](CC(C)C)C(=O)NCC(=O)NC[C@H]2O[C@@H]3O[C@H]4[C@H](O)[C@@H](O)[C@@H](O[C@H]5[C@H](O)[C@@H](O)[C@@H](O[C@H]6[C@H](O)[C@@H](O)[C@@H](O[C@H]7[C@H](O)[C@@H](O)[C@@H](O[C@H]8[C@H](O)[C@@H](O)[C@@H](O[C@H]9[C@H](O)[C@@H](O)[C@@H](O[C@H]2[C@H](O)[C@H]3O)O[C@@H]9CO)O[C@@H]8CO)O[C@@H]7CO)O[C@@H]6CO)O[C@@H]5CO)O[C@@H]4CO)NC(=O)[C@H](CC(N)=O)NC(=O)[C@H](CCC(N)=O)NC1=O`, for which the EC50 – broadly, the concentration needed to bring the measured effect to its halfway point – in the assay on Myometrium [1] amounted to 400 nM. The compound `CC[C@H](C)[C@@H]1NC(=O)[C@H](Cc2ccc(O)cc2)NC(=O)[C@@H](N)CSSC[C@@H](C(=O)N2CCC[C@H]2C(=O)N[C@@H](CC(C)C)C(=O)NCC(N)=O)NC(=O)[C@H](CC(N)=O)NC(=O)[C@H](CCC(N)=O)NC1=O` [OXYTOCIN] displayed an EC50 in the assay on Myometrium [1] of 1.7 nM. Further, in the assay with Myometrium [2], the result was Active. As for `CC[C@H](C)[C@@H]1NC(=O)[C@H](Cc2ccc(O)cc2)NC(=O)[C@H](N)CSSC[C@@H](C(=O)N2CCC[C@H]2C(=O)N[C@@H](CC(C)C)C(=O)NCC(=O)NC[C@H]2O[C@@H]3O[C@H]4[C@H](O)[C@@H](O)[C@@H](O[C@H]5[C@H](O)[C@@H](O)[C@@H](O[C@H]6[C@H](O)[C@@H](O)[C@@H](O[C@H]7[C@H](O)[C@@H](O)[C@@H](O[C@H]8[C@H](O)[C@@H](O)[C@@H](O[C@H]9[C@H](O)[C@@H](O)[C@@H](O[C@H]2[C@H](O)[C@H]3O)O[C@@H]9CO)O[C@@H]8CO)O[C@@H]7CO)O[C@@H]6CO)O[C@@H]5CO)O[C@@H]4CO)NC(=O)[C@H](CC(N)=O)NC(=O)[C@H](CCC(N)=O)NC1=O`, in the assay on Myometrium [3], the result was Active.

Values taken from ChEMBL document CHEMBL1141533, “Synthesis and pharmacological evaluation of a new targeted drug carrier system: beta-cyclodextrin coupled to oxytocin” (Bioorg Med Chem Lett, 2008).
